Measured values: patent US6664214B1, “Uracil compounds and use thereof” (Sumitomo Chemical Company, Limited, priority 1999, dated 2003)

Assays:
Set-up in all cases: key: 0: little difference in the degree of germination or growth between the treated plants and the untreated plants at the time of examination; 10: the treated plants died completely or their germination or growth was completely inhibited
[1] = system: ivyleaf morningglory; test: Test Example 3: foliar treatment on upland field (Table 4); type: in vivo, Ipomoea hederacea; settings: 125 g/ha active ingredient, examined 16 days after application, index 0-10
Protocol: (§1) In the examples, the compounds are identified by the Compound Numbers as in Tables 1 to 3. […] A cylindrical plastic pot having a diameter of 10 cm and a depth of 10 cm was filled with soil and seeded with ivyleaf momingglory, velvetleaf and barnyardgrass. These test plants were grown in a greenhouse for 10 days. Then each of compounds listed below was formulated into an emulsifiable concentrate according to Formulation Example 2 and then diluted to the prescribed amount with water containing a spreading agent and the dilution was uniformly sprayed over the foliage of the test plants with sprayer at a rate of 1000 liters per hectare. After the application, the test plants were grown in the greenhouse for 16 days, and the herbicidal activity were determined.

[2] = system: velvetleaf; test: as above; type: in vivo, Abutilon theophrasti; settings: 125 g/ha active ingredient, examined 16 days after application, index 0-10
Protocol: as §1

[3] = system: barnyardgrass; test: as above; type: in vivo, Echinochloa crus-galli; settings: 125 g/ha active ingredient, examined 16 days after application, index 0-10
Protocol: as §1

[4] = system: ivyleaf morningglory; test: Test Example 4: soil surface treatment on upland field (Table 5); type: in vivo, Ipomoea hederacea; settings: 500 g/ha active ingredient, examined 12 days after application, index 0-10
Source text: (§2) In the examples, the compounds are identified by the Compound Numbers as in Tables 1 to 3. […] A cylindrical plastic pot having a diameter of 10 cm and a depth of 10 cm was filled with soil and seeded ivyleaf morningglory, velvetleaf and barnyardgrass. Then each of compounds listed below was formulated into an emulsifiable concentrate according to Formulation Example 2 and then diluted to the prescribed amount with water and dilution was uniformly sprayed over the surface of the soil with sprayer at the rate of 1000 liters per hectare. After the application, the test plants were grown in a greenhouse for 12 days, and the herbicidal activity was examined.

[5] = system: velvetleaf; test: as above; type: in vivo, Abutilon theophrasti; settings: 500 g/ha active ingredient, examined 12 days after application, index 0-10
Source text: as §2

[6] = system: barnyardgrass; test: as above; type: in vivo, Echinochloa crus-galli; settings: 500 g/ha active ingredient, examined 12 days after application, index 0-10
Source text: as §2

[7] = system: large crabgrass; test: Test Example 5: foliar treatment on upland field (Table 6); type: in vivo, Digitaria sanguinalis; settings: 125 g/ha, 19 days after application, index 0 to 10
Protocol: In the examples, the compounds are identified by the Compound Numbers as in Tables 1 to 3. […] A pot for plug seedlings seeded with large crabgrass. The test plant was grown in a greenhouse for 14 days, then transplanted into a plastic pot having an area of 17×12 cm^2 and a depth of 7 cm, and further the test plants were grown in the greenhouse for 8 days. Then each of compounds listed below was formulated into an emulsifiable concentrate according to Formulation Example 2 and then diluted to the prescribed amount with water containing a spreading agent and the dilution was uniformly sprayed over the foliage of the test plants with sprayer at a rate of 1000 liters per hectare. After the application, the test plants were grown in the greenhouse for 19 days, and the herbicidal activity were determined.

Row | Compound | Herbicidal effect Ivyleaf morningglory [1] | Herbicidal effect Velvetleaf [2] | Herbicidal effect Barnyardgrass [3] | Herbicidal effect Ivyleaf morningglory [4] | Herbicidal effect Velvetleaf [5] | Herbicidal effect Barnyardgrass [6] | Herbicidal effect Large crabgrass [7]
1 | CCOC(=O)C(C)Oc1ccc(COc2cc(-n3c(=O)cc(C(F)(F)F)n(C)c3=O)c(F)cc2Cl)cc1 (stereo not drawn) [Compound 1-2, Ethyl 2-[4-({2-chloro-4-fluoro-5-[3-methyl-2,6-dioxo-4-(trifluoromethyl)-1,2,3,6-tetrahydropyrimidine-1-yl]phenoxy}methyl)phenoxy]propionate] | 10 | 10 | 10 | 10 | 10 | 10 | 10
2 | COC(=O)C(C)Oc1ccc(C(C)Oc2cc(-n3c(=O)cc(C(F)(F)F)n(C)c3=O)c(F)cc2Cl)cc1 (stereo not drawn) [Compound 1-21, Methyl 2-[4-(1-{2-chloro-4-fluoro-5-[3-methyl-2,6-dioxo-4-(trifluoromethyl)-1,2,3,6-tetrahydropyrimidine-1-yl]phenoxy}ethyl)phenoxy]propionate] | 10 | 10 | 10 | 10 | 10 | 10 | 10
3 | CCOC(=O)C(C)Oc1ccc(COc2cc(-n3c(=O)cc(C(F)(F)F)n(C)c3=O)c(F)cc2Cl)cc1Cl (stereo not drawn) [Compound 1-42, Ethyl 2-[2-chloro-4-({2-chloro-4-fluoro-5-[3-methyl-2,6-dioxo-4-(trifluoromethyl)-1,2,3,6-tetrahydropyrimidine-1-yl]phenoxy}methyl)phenoxy]propionate] | 10 | 10 | 10 | 10 | 10 | 8 | 10
4 | COC(=O)C(C)Oc1ccc(COc2cc(-n3c(=O)cc(C(F)(F)F)n(C)c3=O)c(F)cc2Cl)cc1OC (stereo not drawn) [Compound 1-61, Methyl 2-[4-({2-chloro-4-fluoro-5-[3-methyl-2,6-dioxo-4-(trifluoromethyl)-1,2,3,6-tetrahydropyrimidine-1-yl]phenoxy}methyl)-2-methoxyphenoxy]propionate] | 10 | 10 | 10 | 10 | 10 | 10 | 10
5 | COC(=O)C(C)Oc1ccc(COc2cc(-n3c(=O)cc(C(F)(F)F)n(C)c3=O)c(F)cc2Cl)cc1C (stereo not drawn) [Compound 1-101, Methyl 2-[4-({2-chloro-4-fluoro-5-[3-methyl-2,6-dioxo-4-(trifluoromethyl)-1,2,3,6-tetrahydropyrimidine-1-yl]phenoxy}methyl)-2-methylphenoxy]propionate] | 10 | 10 | 10 | 10 | 10 | 10 | 10
6 | COC(=O)C(C)Oc1c(Br)cc(COc2cc(-n3c(=O)cc(C(F)(F)F)n(C)c3=O)c(F)cc2Cl)cc1OC (stereo not drawn) [Compound 1-161, Methyl 2-[2-bromo-4-({2-chloro-4-fluoro-5-[3-methyl-2,6-dioxo-4-(trifluoromethyl)-1,2,3,6-tetrahydropyrimidine-1-yl]phenoxy}methyl)-6-methoxyphenoxy]propionate] | 10 | 10 | 8 | 7 | 10 | 4 | 10
7 | CCC(Oc1cc(-n2c(=O)cc(C(F)(F)F)n(C)c2=O)c(F)cc1Cl)c1ccc(OC(C)C(=O)OC)cc1 (stereo not drawn) [Compound 1-213, Methyl 2-[4-(1-{2-chloro-4-fluoro-5-[3-methyl-2,6-dioxo-4-(trifluoromethyl)-1,2,3,6-tetrahydropyrimidine-1-yl]phenoxy}propyl)phenoxy]propionate] | 10 | 10 | 10 | 10 | 10 | 10 | 10
8 | COC(=O)C(C)Oc1ccc(C(C#N)Oc2cc(-n3c(=O)cc(C(F)(F)F)n(C)c3=O)c(F)cc2Cl)cc1 (stereo not drawn) [Compound 1-226, Methyl 2-{4-[{2-chloro-4-fluoro-5-[3-methyl-2,6-dioxo-4-(trifluoromethyl)-1,2,3,6-tetrahydropyrimidine-1-yl]phenoxy}(cyano)methyl]phenoxy}propionate] | 10 | 10 | 10 | 10 | 10 | 9 | 10
9 | COC(=O)C(C)Oc1c(OC)cc(COc2cc(-n3c(=O)cc(C(F)(F)F)n(C)c3=O)c(F)cc2Cl)cc1OC (stereo not drawn) [Compound 1-238, Methyl 2-[4-({2-chloro-4-fluoro-5-[3-methyl-2,6-dioxo-4-(trifluoromethyl)-1,2,3,6-tetrahydropyrimidine-1-yl]phenoxy}methyl)-2,6-dimethoxyphenoxy]propionate] | 10 | 10 | 9 | 10 | 10 | 8 | 10
10 | COC(=O)C(C)Oc1ccc(COc2cc(-n3c(=O)cc(C(F)(F)F)n(C)c3=O)c(F)cc2Cl)c(F)c1 (stereo not drawn) [Compound 1-242, Methyl 2-[4-({2-chloro-4-fluoro-5-[3-methyl-2,6-dioxo-4-(trifluoromethyl)-1,2,3,6-tetrahydropyrimidine-1-yl]phenoxy}methyl)-3-fluorophenoxy]propionate] | 10 | 10 | 10 | 10 | 10 | 10 | 10
11 | COC(=O)C(C)Oc1ccc(C(Oc2cc(-n3c(=O)cc(C(F)(F)F)n(C)c3=O)c(F)cc2Cl)c2ccccc2)cc1 (stereo not drawn) [Compound 1-246, Methyl 2-[4-({2-chloro-4-fluoro-5-[3-methyl-2,6-dioxo-4-(trifluoromethyl)-1,2,3,6-tetrahydropyrimidine-1-yl]phenoxy}(phenyl)methyl)phenoxy]propionate] | 10 | 10 | 8 | 8 | 10 | 10 | 10
12 | COC(=O)COc1cccc(COc2cc(-n3c(=O)cc(C(F)(F)F)n(C)c3=O)c(F)cc2Cl)c1 [Compound 2-11, Methyl 2-[3-({2-chloro-4-fluoro-5-[3-methyl-2,6-dioxo-4-(trifluoromethyl)-1,2,3,6-tetrahydropyrimidine-1-yl]phenoxy}methyl)phenoxy]acetate] | 10 | 10 | 8 | 10 | 10 | 9 | 10
